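48-hour exposure; five concentrations; linearly interpolated endpoints. GI50 = concentration required for 50% inhibition of growth.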 The source made the active and inactive calls. Cut-off read from the data, not from the text of the source: active = GI50 up to about 1.1 µM and inactive = higher.
Tests used:
Assay in all cases: growth of human tumour cells (NCI), 48 h
786-0 = tested on: 786-0
DU-145 = tested on: DU-145
HCT-15 = tested on: HCT-15
K562 = tested on: K562
M14 = tested on: M14
MCF7 = tested on: MCF7
MDA-MB-231 = tested on: MDA-MB-231
MDA-MB-435 = tested on: MDA-MB-435
MDA-N = tested on: MDA-N
NCI-H460 = tested on: NCI-H460
OVCAR-3 = tested on: OVCAR-3
SF-539 = tested on: SF-539
SK-MEL-5 = tested on: SK-MEL-5
SK-OV-3 = tested on: SK-OV-3
SR = tested on: SR
U-251 = tested on: U-251
UACC-257 = tested on: UACC-257
UACC-62 = tested on: UACC-62
UO-31 = tested on: UO-31
SK-MEL-2 = tested on: SK-MEL-2

SMILES | GI50 (786-0) | GI50 (DU-145) | GI50 (HCT-15) [µM] | GI50 (K562) | GI50 (M14) | GI50 (MCF7) | GI50 (MDA-MB-231) | GI50 (MDA-MB-435) | GI50 (MDA-N) | GI50 (NCI-H460) | GI50 (OVCAR-3) | GI50 (SF-539) | GI50 (SK-MEL-5) | GI50 (SK-OV-3) | GI50 (SR) | GI50 (U-251) | GI50 (UACC-257) | GI50 (UACC-62) | GI50 (UO-31) | GI50 (SK-MEL-2)
COc1ccc(-c2cc(O)c3cc(OC)c(OC)cc3n2)cc1OC | > 100 µM (inactive) | > 100 µM (inactive) | > 100 | > 100 µM (inactive) | > 100 µM (inactive) | > 100 µM (inactive) | > 100 µM (inactive) | > 100 µM (inactive) | > 100 µM (inactive) | > 100 µM (inactive) | > 100 µM (inactive) | > 100 µM (inactive) | > 100 µM (inactive) | > 100 µM (inactive) | > 100 µM (inactive) | > 100 µM (inactive) | > 100 µM (inactive) | > 100 µM (inactive) | > 100 µM (inactive) | –
Cc1nc2ccccc2n1Cc1ccc(NC(=S)Nc2ccccc2)cc1 | > 100 µM (inactive) | 73.8 µM (inactive) | 72.8 | 33.4 µM (inactive) | 56.1 µM (inactive) | 27.4 µM (inactive) | 36.4 µM (inactive) | 46.9 µM (inactive) | 31 µM (inactive) | 92.3 µM (inactive) | 27.9 µM (inactive) | 23.8 µM (inactive) | 12.3 µM (inactive) | > 100 µM (inactive) | 20.2 µM (inactive) | 82.6 µM (inactive) | 32.7 µM (inactive) | 58.7 µM (inactive) | > 100 µM (inactive) | 73.8 µM (inactive)
COC(=O)/C=C\c1ccc2c(c1)CC1(C2)Cc2ccc(/C=C/C(=O)OC)cc2C1 (configuration not stated) | 19.6 µM (inactive) | > 100 µM (inactive) | > 31.6 | > 31.6 µM (inactive) | > 31.6 µM (inactive) | 21.2 µM (inactive) | 17.2 µM (inactive) | > 31.6 µM (inactive) | > 31.6 µM (inactive) | > 100 µM (inactive) | > 31.6 µM (inactive) | 30 µM (inactive) | > 31.6 µM (inactive) | > 31.6 µM (inactive) | 5.57 µM (inactive) | 20.7 µM (inactive) | > 31.6 µM (inactive) | > 31.6 µM (inactive) | > 31.6 µM (inactive) | > 10 µM (inactive)
CC(CC(=O)O)(CC(=O)O)C(=O)O | > 100 µM (inactive) | > 100 µM (inactive) | > 100 | > 100 µM (inactive) | > 100 µM (inactive) | > 100 µM (inactive) | > 100 µM (inactive) | > 100 µM (inactive) | > 100 µM (inactive) | > 100 µM (inactive) | > 100 µM (inactive) | > 100 µM (inactive) | > 100 µM (inactive) | > 100 µM (inactive) | > 100 µM (inactive) | > 100 µM (inactive) | > 100 µM (inactive) | > 100 µM (inactive) | > 100 µM (inactive) | > 100 µM (inactive)
COC(=O)C(Cc1c[nH]c2ccccc12)NC1=Nc2ccncc2S(=O)(=O)N1c1ccccc1 (configuration not stated) | 33.3 µM (inactive) | 41.4 µM (inactive) | 77.6 | 20.5 µM (inactive) | 35.6 µM (inactive) | 33.2 µM (inactive) | 52.1 µM (inactive) | 32.1 µM (inactive) | 45.1 µM (inactive) | 98.2 µM (inactive) | 34.2 µM (inactive) | 17.1 µM (inactive) | 16 µM (inactive) | 56.5 µM (inactive) | 20.2 µM (inactive) | 41.5 µM (inactive) | 50.1 µM (inactive) | 3.15 µM (inactive) | 32.6 µM (inactive) | 38.1 µM (inactive)
CC1(C)O[C@H]2OC(CO)C(N=[N+]=[N-])[C@H]2O1 (some centres not stated) | > 100 µM (inactive) | > 100 µM (inactive) | > 100 | – | > 100 µM (inactive) | > 100 µM (inactive) | > 100 µM (inactive) | > 100 µM (inactive) | > 100 µM (inactive) | > 100 µM (inactive) | > 100 µM (inactive) | > 100 µM (inactive) | > 100 µM (inactive) | – | > 100 µM (inactive) | > 100 µM (inactive) | > 100 µM (inactive) | > 100 µM (inactive) | > 100 µM (inactive) | > 100 µM (inactive)
C#CC(O)Cc1ccc(OC)c2occc12 (configuration not stated) | > 100 µM (inactive) | > 100 µM (inactive) | > 100 | > 100 µM (inactive) | > 100 µM (inactive) | > 100 µM (inactive) | > 100 µM (inactive) | > 100 µM (inactive) | > 100 µM (inactive) | > 100 µM (inactive) | > 100 µM (inactive) | > 100 µM (inactive) | > 100 µM (inactive) | > 100 µM (inactive) | > 100 µM (inactive) | > 100 µM (inactive) | > 100 µM (inactive) | > 100 µM (inactive) | > 100 µM (inactive) | > 100 µM (inactive)
